From patent US20170304288A1, “Formulations of Methionine Aminopeptidase Inhibitors for Treating Infectious Diseases” (Texas Southern University, priority 2013, published 2017)

System: M. tuberculosis HN 3409
Assay type: cell-based, Mycobacterium tuberculosis
Details: preliminary results, 29 days

| SMILES | Multi-Drug Resistant Tuberculosis Strain HN3409 [µg/mL] |
| --- | --- |
| Oc1c(Cl)cc(Cl)c2cccnc12 | <1.0 |
| O=C1C(Br)=C(Br)C(=O)c2ccccc21 | <25.0 |
| O=C1C(Cl)=C(Cl)C(=O)c2ccccc21 | <10.0 |
| O=C(N/N=C/c1c(O)ccc2ccccc12)c1ccncc1 [drawing 27] | >25.0 |
| Oc1ccccc1/C=N/Nc1ncnc2sc3c(c12)CCCC3 [drawing 28] | >25.0 |
| Cc1nc(-c2ccccn2)nc(N(C)Cc2ccccc2)c1Cl [drawing 29] | <1.0 |
| Oc1c(Br)cc(Cl)c2cccnc12 [drawing 31] | <5.0 |
| Oc1c(I)cc(Cl)c2cccnc12 [drawing 32] | <10.0 |
